Measurements: PubChem BioAssay AID2060362 (Molecular Pharmacology Branch, DTP, NCI, 2025)
“And” between values parts separate entries of the source, which are not always exact repeats. Equal entries are not always repeated.

Tested on: 128128-338-R-J1-PDC spheroids, viability % test/control
Assay: Anticancer human tumor 128128-338-R-J1-PDC patient-derived melanoma cell line growth inhibition [TAK]
Conditions: spheroids with HUVEC and MSC; for viability, T/C: stronger effect = lower value
Text: Combinatorial screen of targeted agents with TAK-243 and ipatasertib in multi-cell type tumor spheroids
A high-throughput screen of multi-cell type tumor spheroids was designed to identify active combinations of targeted small molecules and TAK-243 or ipatasertib. Complex spheroids include a stromal component modeled by human endothelial cells (HUVEC) and fibroblasts modeled by human mesenchymal stem cells (MSCs). The concentration ranges selected for each drug and investigational agent were based upon clinically achievable concentrations if the clinical Cmax of the agent was known.
Compounds. The drugs and investigational agents: TAK-243 (785004), ipatasertib (767898), everolimus (733504), selumetinib (741078), bortezomib (756655), trametinib (758246), ixazomib (758254), vemurafenib (761431), dabrafenib (764134), sapanisertib (764658), alpelisib (765974), and copanlisib (816437), were obtained from the National Cancer Institute (NCI) Developmental Therapeutics Program Chemical Repository. The FDA-approved anticancer drug set is available from the NCI Developmental Therapeutics Program. […] The stock solutions were prepared in dimethyl sulfoxide (DMSO, Sigma-Aldrich, St. Louis, MO, cat. D2650) at 800-fold the tested concentration and stored at -70 degrees C prior to their use. All drugs and investigational agents were tested over a range starting from a high concentration at or near the clinical Cmax and decreasing in half-log increments. If the clinical Cmax for an agent had not been determined, the highest concentration tested was 10 microM.
NCI60 Cell Culture. NCI60 cell lines were obtained from the NCI Developmental Therapeutics Program Tumor Repository. For each lot of cells, the Repository performed Applied Biosystems AmpFLSTR Identifiler testing with PCR amplification to confirm consistency with the published Identifier STR profile for each cell line. Cells were kept in continuous culture for no more than 20 passages. The optimal seeding densities for each of the cell lines at each time point assessed were determined prior to performing the concentration response studies. Briefly, the NCI60 human tumor lines were grown as monolayers in RPMI 1640 medium supplemented with 10% FBS and 2 mmol/L L-glutamine.
An additional 2 lines were from the NCI60 cell line panel including melanomas, MALME-3M and SK-MEL-2. Pooled donor human umbilical vein endothelial cells (HUVEC, Lonza, cat. CC-2519) and human mesenchymal stem cells (hMSC, Lonza, cat. PT-2501) were purchased from Lonza (Walkersville, MD).
PDMR cell lines were grown in complete medium (DC medium): Dulbecco's modified Eagle's medium (DMEM)/F12 supplemented with 5% fetal bovine serum (FBS), 2 mM L-glutamine, 100 U/mL penicillin and 100 µg/ml streptomycin, 0.4 µg/ml hydrocortisone, 10 ng/ml epidermal growth factor (EGF) recombinant human protein, 24 µg/mL adenine, and 0.1 mg/mL primocin. During culture from frozen stock vials, PDMR cells were cultured in the same medium containing 10 µM Y-27632 (see Table 3). The PDCs were cultured in complete DMEM/F12 media without 10 microM Y-27632 dihydrochloride for at least two passages prior to the screen. The pooled donor HUVEC and hMSC were cultured in endothelial cell growth medium 2 (PromoCell, Heidelberg, Germany, cat. C-22011) and mesenchymal stem cell growth medium 2 (PromoCell, cat. C-28009), respectively. For all experiments, HUVEC and hMSC were used at passages </=5.
For the pre-screen, cell seeding densities were determined from a titration spanning the range from 5,000 to 313 cells per well. The mct-spheroids including 60% malignant cells, 25% HUVEC and 15% MSC dispensed as a mixture into U-bottom Ultra-Low Attachment 384-well plates (Corning, NY)
High-throughput Drug Combination Screening.
Prior to their inoculation into 384-well plates, malignant cells, HUVEC, and hMSC were removed from T flasks using TrypLE express (Thermo Fisher Scientific, cat. 12605036) and harvested by centrifugation for 5 min at 233 x g. […]
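Note: spheroids exposed to compounds for 7 days.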
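Throughout, for viability, T/C: 100% = DMSO vehicle wells.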

CCCS(=O)(=O)Nc1ccc(F)c(C(=O)c2c[nH]c3ncc(-c4ccc(Cl)cc4)cc23)c1F
viability, T/C (compound 0.316 µM): 79.4% and 79.2%
viability, T/C (compound 1 µM): 60.5% and 59.8%
viability, T/C (compound 3.16 µM): 12.7% and 14.3%
viability, T/C (compound 10 µM): 0.39% and 0.64%
viability, T/C (compound 31.6 µM): 1.44% and 0.22%
viability, T/C (compound 100 µM): 1.11% and 5.48%
IC50 (curve of compound): 1290 nM and 1280 nM

COc1c(OCCCN2CCOCC2)ccc2c3n(c(=NC(=O)c4cnc(N)nc4)nc12)CCN3
viability, T/C (compound 0.00316 µM): 109% and 105%
viability, T/C (compound 0.01 µM): 99.4% and 96.6%
viability, T/C (compound 0.0316 µM): 99.3% and 84.1%
viability, T/C (compound 0.1 µM): 75.9% and 72%
viability, T/C (compound 0.316 µM): 21.6% and 15.2%
viability, T/C (compound 1 µM): 8.68% and 5.59%
IC50 (curve of compound): 173 nM and 153 nM

Cc1nc(NC(=O)N2CCCC2C(N)=O)sc1-c1ccnc(C(C)(C)C(F)(F)F)c1 (centres undefined) + CC(C)NCC(C(=O)N1CCN(c2ncnc3c2C(C)CC3O)CC1)c1ccc(Cl)cc1
IC50 (curve of first compound, second compound 0.3 µM): > 10000 nM
IC50 (curve of first compound, second compound 0.949 µM): > 10000 nM
IC50 (curve of first compound, second compound 3 µM): > 10000 nM
IC50 (curve of first compound, second compound 9.49 µM): 3460 nM
IC50 (curve of first compound, second compound 30 µM): < 31.6 nM
viability, T/C (second compound 0.3 µM, first compound 0.0316 µM): 102%
viability, T/C (second compound 0.3 µM, first compound 0.1 µM): 105%
viability, T/C (second compound 0.3 µM, first compound 0.316 µM): 102%
viability, T/C (second compound 0.3 µM, first compound 1 µM): 105%
viability, T/C (second compound 0.3 µM, first compound 3.16 µM): 105%
viability, T/C (second compound 0.3 µM, first compound 10 µM): 73.2%
viability, T/C (second compound 0.949 µM, first compound 0.0316 µM): 89%
viability, T/C (second compound 0.949 µM, first compound 0.1 µM): 103%
viability, T/C (second compound 0.949 µM, first compound 0.316 µM): 100%
viability, T/C (second compound 0.949 µM, first compound 1 µM): 91.7%
viability, T/C (second compound 0.949 µM, first compound 3.16 µM): 82.7%
viability, T/C (second compound 0.949 µM, first compound 10 µM): 81.8%
viability, T/C (second compound 3 µM, first compound 0.0316 µM): 95.8%
viability, T/C (second compound 3 µM, first compound 0.1 µM): 88.8%
viability, T/C (second compound 3 µM, first compound 0.316 µM): 90.7%
viability, T/C (second compound 3 µM, first compound 1 µM): 84.7%
viability, T/C (second compound 3 µM, first compound 3.16 µM): 80%
viability, T/C (second compound 3 µM, first compound 10 µM): 54.5%
viability, T/C (second compound 9.49 µM, first compound 0.0316 µM): 69.5%
viability, T/C (second compound 9.49 µM, first compound 0.1 µM): 70.2%
viability, T/C (second compound 9.49 µM, first compound 0.316 µM): 68.5%
viability, T/C (second compound 9.49 µM, first compound 1 µM): 64.8%
viability, T/C (second compound 9.49 µM, first compound 3.16 µM): 51.8%
viability, T/C (second compound 9.49 µM, first compound 10 µM): 23.7%
viability, T/C (second compound 30 µM, first compound 0.0316 µM): 24.1%
viability, T/C (second compound 30 µM, first compound 0.1 µM): 21.2%
viability, T/C (second compound 30 µM, first compound 0.316 µM): 22.1%
viability, T/C (second compound 30 µM, first compound 1 µM): 16.6%
viability, T/C (second compound 30 µM, first compound 3.16 µM): 15%
viability, T/C (second compound 30 µM, first compound 10 µM): 3.6%
